Settings in all cases: Compound concentration 10.0 uM
The target in assay [1] is Angiopoietin-1 receptor (Homo sapiens) (UniProt Q02763).
For assay [2], the target named is Tyrosine-protein kinase SYK (Homo sapiens) (UniProt P43405).
The target in assay [3] is Insulin receptor (Homo sapiens) (UniProt P06213).
Assay [4] has as its target Mitogen-activated protein kinase 1 (Homo sapiens) (UniProt P28482).
Assay [5] addresses Epidermal growth factor receptor (Homo sapiens) (UniProt P00533).
The target in assay [6] is T1, Aurora kinase A (Homo sapiens) (UniProt O14965).
T1 sequence (whole entry): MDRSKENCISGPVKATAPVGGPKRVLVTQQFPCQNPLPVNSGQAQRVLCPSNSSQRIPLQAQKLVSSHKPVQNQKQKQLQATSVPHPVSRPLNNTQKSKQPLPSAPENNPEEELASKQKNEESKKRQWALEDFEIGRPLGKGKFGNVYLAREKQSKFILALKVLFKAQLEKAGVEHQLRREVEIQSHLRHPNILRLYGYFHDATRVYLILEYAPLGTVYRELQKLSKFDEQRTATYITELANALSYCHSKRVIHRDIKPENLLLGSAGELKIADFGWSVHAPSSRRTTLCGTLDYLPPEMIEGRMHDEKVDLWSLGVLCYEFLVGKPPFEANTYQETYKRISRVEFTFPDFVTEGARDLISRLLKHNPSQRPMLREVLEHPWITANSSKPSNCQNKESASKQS

The target in assay [7] is Mitogen-activated protein kinase kinase kinase 9 (Homo sapiens) (UniProt P80192).
The target in assay [8] is Rho-associated protein kinase 1 (Homo sapiens) (UniProt Q13464).
For assay [9], the target named is Serine/threonine-protein kinase pim-1 (Homo sapiens) (UniProt P11309).
For assay [10], the target named is PI3-kinase p110-alpha/p85-alpha (Homo sapiens) (UniProt P27986+P42336).
Assay [11] concerns the target Tyrosine-protein kinase ABL1 (Homo sapiens) (UniProt P00519).
The target of assay [12] is Alpha-1A adrenergic receptor (Homo sapiens) (UniProt P35348).
Assay [13] deals with Sodium-dependent dopamine transporter (Homo sapiens) (UniProt Q01959).
Assay [14] deals with Serine/threonine-protein kinase MARK2 (Homo sapiens) (UniProt Q7KZI7).
Assay [15] addresses T2, Inhibitor of nuclear factor kappa-B kinase subunit beta (Homo sapiens) (UniProt O14920).
T2 sequence (whole entry): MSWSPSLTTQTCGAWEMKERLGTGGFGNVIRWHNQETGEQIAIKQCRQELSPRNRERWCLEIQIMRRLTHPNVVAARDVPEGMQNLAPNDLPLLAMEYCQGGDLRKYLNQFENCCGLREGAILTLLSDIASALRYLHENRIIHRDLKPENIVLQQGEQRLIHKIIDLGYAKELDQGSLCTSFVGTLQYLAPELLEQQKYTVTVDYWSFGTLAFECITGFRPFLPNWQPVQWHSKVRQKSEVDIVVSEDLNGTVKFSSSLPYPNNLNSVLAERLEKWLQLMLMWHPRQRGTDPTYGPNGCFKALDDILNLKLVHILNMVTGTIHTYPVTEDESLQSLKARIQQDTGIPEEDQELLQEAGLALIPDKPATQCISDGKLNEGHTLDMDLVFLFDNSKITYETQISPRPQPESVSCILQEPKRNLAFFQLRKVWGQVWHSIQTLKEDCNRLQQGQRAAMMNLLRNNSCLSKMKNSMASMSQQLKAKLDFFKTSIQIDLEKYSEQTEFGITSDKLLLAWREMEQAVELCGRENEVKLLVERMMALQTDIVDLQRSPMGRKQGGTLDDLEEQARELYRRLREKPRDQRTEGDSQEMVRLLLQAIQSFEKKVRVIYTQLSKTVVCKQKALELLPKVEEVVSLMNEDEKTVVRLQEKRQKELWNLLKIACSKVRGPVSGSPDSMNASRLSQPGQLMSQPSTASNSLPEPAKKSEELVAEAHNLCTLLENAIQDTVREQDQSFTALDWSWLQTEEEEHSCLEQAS

Assay [16] deals with Receptor tyrosine-protein kinase erbB-2 (Homo sapiens) (UniProt P04626).
Assay [17] concerns the target Ribosomal protein S6 kinase alpha-3 (Homo sapiens) (UniProt P51812).
For assay [18], the target named is Fibroblast growth factor receptor 1 (Homo sapiens) (UniProt P11362).
In assay [19] the target is Proto-oncogene tyrosine-protein kinase receptor Ret (Homo sapiens) (UniProt P07949).
Assay [20] has as its target Cyclin-dependent kinase 2/cyclin A (Homo sapiens) (UniProt P24941+P20248+P78396).
Assay [21] deals with Hepatocyte growth factor receptor (Homo sapiens) (UniProt P08581).
Assay [22] addresses Serine/threonine-protein kinase PLK1 (Homo sapiens) (UniProt P53350).
Assay [23] has as its target Dual specificity tyrosine-phosphorylation-regulated kinase 3 (Homo sapiens) (UniProt O43781).
The target of assay [24] is Tyrosine-protein kinase Lck (Homo sapiens) (UniProt P06239).
In assay [25] the target is Proto-oncogene tyrosine-protein kinase Src (Homo sapiens) (UniProt P12931).
In assay [26] the target is Mast/stem cell growth factor receptor Kit (Homo sapiens) (UniProt P10721).
Assay [27] has as its target Histamine H2 receptor (Homo sapiens) (UniProt P25021).

One may read the inhibition as the relative decrease from the control value, in per cent.

SMILES strings stand for the structures.

Serine/threonine-protein kinase pim-1 (Homo sapiens), sequence (P11309 whole entry, looked up): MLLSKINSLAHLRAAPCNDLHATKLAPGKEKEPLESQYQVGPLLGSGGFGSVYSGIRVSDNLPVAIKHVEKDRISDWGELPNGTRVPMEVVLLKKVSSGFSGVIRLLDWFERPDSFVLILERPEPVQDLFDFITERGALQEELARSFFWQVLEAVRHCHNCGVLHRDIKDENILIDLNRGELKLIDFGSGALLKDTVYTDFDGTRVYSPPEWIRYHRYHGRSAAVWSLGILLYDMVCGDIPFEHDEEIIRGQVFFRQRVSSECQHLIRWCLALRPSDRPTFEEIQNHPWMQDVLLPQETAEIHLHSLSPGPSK
Angiopoietin-1 receptor (Homo sapiens), sequence (Q02763 whole entry): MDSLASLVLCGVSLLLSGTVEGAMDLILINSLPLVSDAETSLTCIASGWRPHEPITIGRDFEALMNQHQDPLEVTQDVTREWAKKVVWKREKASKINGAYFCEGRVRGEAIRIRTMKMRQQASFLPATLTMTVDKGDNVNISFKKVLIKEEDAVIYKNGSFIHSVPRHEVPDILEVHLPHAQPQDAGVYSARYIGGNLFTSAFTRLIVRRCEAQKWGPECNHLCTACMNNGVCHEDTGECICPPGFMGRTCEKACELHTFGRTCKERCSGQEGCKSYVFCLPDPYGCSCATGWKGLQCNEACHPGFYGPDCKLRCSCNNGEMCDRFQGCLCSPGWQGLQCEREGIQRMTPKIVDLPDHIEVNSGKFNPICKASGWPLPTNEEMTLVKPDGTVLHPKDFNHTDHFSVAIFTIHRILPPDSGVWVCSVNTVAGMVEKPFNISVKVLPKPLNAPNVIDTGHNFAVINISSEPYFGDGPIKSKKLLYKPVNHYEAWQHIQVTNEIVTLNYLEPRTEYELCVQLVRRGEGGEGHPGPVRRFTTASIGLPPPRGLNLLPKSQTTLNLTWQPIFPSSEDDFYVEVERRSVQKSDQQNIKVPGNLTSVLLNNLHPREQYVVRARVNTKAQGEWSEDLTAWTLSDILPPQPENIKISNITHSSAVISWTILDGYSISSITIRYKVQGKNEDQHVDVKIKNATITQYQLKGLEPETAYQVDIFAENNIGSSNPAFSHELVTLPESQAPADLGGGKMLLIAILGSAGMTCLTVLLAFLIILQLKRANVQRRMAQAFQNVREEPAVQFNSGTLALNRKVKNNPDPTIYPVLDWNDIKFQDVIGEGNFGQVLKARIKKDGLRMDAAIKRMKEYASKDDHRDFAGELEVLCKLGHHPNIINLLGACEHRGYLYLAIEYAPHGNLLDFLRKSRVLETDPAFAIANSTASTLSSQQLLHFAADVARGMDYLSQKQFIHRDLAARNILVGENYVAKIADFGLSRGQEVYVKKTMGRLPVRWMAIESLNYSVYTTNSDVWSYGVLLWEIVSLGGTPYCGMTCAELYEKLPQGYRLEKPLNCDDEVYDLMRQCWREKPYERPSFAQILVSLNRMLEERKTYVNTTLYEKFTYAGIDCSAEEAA
Hepatocyte growth factor receptor (Homo sapiens), sequence (P08581 whole entry): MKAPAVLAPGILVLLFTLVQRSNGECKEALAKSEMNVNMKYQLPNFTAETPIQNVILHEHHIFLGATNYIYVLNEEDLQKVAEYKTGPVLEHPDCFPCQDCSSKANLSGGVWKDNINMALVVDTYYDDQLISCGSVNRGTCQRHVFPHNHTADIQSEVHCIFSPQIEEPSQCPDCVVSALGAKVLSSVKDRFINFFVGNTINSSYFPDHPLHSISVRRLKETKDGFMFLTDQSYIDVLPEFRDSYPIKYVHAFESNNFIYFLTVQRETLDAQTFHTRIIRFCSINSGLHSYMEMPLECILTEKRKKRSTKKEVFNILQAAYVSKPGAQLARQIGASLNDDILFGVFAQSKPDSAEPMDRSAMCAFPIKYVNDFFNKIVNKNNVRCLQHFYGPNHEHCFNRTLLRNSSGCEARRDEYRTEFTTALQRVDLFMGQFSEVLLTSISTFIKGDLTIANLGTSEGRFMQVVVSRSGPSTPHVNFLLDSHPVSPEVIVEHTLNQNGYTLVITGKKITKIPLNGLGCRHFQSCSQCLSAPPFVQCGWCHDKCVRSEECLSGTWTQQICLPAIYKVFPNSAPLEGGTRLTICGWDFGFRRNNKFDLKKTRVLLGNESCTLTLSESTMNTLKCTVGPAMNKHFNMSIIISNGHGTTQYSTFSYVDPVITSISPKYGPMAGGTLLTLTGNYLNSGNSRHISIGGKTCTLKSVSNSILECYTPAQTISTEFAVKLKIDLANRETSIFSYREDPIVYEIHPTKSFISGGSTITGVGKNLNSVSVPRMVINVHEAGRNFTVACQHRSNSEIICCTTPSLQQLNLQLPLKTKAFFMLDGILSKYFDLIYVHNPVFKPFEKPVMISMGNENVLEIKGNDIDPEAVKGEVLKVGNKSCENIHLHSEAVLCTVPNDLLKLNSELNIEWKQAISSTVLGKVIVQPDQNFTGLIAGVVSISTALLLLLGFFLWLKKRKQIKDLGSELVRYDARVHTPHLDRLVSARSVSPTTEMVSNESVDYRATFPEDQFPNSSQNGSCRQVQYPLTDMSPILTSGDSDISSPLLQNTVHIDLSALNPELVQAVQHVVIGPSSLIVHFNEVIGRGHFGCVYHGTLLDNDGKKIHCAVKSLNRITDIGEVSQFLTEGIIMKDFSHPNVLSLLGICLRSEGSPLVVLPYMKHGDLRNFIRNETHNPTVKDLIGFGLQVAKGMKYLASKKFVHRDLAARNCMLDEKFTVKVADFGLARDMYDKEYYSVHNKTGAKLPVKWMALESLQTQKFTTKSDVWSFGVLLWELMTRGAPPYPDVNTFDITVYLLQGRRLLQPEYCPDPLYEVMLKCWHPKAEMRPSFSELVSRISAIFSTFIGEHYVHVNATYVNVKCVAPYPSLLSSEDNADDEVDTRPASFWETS
Sodium-dependent dopamine transporter (Homo sapiens), sequence (Q01959 whole entry): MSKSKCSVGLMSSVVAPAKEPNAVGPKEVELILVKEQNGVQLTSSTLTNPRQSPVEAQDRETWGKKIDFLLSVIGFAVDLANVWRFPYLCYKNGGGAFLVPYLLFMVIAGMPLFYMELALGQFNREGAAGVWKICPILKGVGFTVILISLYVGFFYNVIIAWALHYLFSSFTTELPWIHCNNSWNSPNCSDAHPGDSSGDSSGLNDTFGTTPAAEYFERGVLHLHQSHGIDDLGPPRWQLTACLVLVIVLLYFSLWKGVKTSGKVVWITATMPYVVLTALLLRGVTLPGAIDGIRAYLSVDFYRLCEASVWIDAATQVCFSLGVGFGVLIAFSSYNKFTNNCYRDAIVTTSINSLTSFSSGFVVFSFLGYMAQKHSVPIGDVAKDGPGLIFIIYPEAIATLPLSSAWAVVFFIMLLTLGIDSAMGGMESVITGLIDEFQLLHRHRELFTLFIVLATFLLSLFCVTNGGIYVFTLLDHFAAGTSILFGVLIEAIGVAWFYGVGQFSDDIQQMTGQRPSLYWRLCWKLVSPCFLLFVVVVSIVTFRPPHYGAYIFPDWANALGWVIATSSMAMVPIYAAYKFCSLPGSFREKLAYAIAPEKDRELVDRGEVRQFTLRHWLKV
Serine/threonine-protein kinase MARK2 (Homo sapiens), sequence (Q7KZI7 whole entry): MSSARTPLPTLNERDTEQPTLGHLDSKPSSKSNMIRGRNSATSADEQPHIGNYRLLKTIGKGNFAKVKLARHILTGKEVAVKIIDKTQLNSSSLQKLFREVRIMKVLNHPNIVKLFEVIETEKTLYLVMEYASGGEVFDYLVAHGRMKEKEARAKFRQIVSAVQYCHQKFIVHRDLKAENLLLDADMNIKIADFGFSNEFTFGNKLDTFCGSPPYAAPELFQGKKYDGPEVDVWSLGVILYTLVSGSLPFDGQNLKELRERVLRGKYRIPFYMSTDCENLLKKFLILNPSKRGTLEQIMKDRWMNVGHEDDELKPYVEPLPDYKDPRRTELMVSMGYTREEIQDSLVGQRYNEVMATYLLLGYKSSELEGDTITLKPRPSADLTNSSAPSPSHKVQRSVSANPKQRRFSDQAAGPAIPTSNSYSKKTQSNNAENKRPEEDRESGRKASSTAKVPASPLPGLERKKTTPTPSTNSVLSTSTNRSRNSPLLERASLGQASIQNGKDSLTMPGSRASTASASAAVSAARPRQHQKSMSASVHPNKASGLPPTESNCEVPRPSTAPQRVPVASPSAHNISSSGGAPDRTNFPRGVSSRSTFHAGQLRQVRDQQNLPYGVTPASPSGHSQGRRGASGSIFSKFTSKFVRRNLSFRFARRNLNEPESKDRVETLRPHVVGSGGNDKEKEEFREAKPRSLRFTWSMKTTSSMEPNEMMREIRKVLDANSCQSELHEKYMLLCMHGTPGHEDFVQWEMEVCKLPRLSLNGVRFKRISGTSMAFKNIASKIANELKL
Ribosomal protein S6 kinase alpha-3 (Homo sapiens), sequence (P51812 whole entry): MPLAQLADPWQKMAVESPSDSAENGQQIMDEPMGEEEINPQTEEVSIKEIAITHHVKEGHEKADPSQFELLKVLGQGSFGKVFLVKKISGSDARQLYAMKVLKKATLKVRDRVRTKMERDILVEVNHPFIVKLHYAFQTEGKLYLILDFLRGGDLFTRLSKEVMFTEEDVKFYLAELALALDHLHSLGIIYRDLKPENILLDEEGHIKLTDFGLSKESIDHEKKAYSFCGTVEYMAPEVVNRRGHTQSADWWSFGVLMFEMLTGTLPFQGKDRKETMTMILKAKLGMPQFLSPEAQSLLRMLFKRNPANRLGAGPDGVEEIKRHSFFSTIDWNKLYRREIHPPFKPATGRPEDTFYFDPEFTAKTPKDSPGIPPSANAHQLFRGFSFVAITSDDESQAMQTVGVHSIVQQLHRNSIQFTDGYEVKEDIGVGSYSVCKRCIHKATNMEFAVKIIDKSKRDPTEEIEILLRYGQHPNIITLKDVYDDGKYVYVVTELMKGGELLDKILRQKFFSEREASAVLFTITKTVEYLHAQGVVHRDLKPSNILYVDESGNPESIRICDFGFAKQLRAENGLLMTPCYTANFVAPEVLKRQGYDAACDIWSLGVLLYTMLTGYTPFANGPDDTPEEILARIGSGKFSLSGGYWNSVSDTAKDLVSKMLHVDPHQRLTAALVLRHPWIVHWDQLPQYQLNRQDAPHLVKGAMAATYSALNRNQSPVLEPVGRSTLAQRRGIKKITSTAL

In the case of `CCOC(=O)c1cc2cc(-c3cc(C(=O)NCc4ccc(C(=O)O)cc4)nn3C)ccc2[nH]1` [BI 4394], the residual activity in assay [1] was 85%; in assay [2] it was 56%; in [3], 98%; in assay [4] it was 84%; in assay [5] it was 99%; in assay [6], -1%. The residual activity in assay [7] is 93%; in assay [8] it was 97%; in [9] it was 14%; in [10], 133%; in [11], 48%; in assay [14] it was 107%. In addition, the residual activity was 48% in [15]; 87% in assay [16]; 5% in [17]; 94% in assay [18]; 64% in assay [19]; 93% in [20]. Also, the residual activity in [21] was 43%; in assay [22] it was 73%; in assay [23] it was 28%; in assay [24], 68%; in [25], 25%; in assay [26], 77%. Further, the results for the inhibition in assay [12] and in assay [13] were -6.15% and 2.26%, respectively.
As to `Cn1nc(C(=O)NCc2ccc(C(=O)O)cc2)cc1-c1ccc2[nH]ccc2c1` [BI 4395], the inhibition in [27] was 8.57%.

These data come from ChEMBL document CHEMBL4507281, “Data for DCP probe BI-4394” (2021).
